Laboratory results from US20100311084A1, “METHODS FOR PREDICTING A PATIENT'S RESPONSE TO EGFR INHIBITORS” (PRECISION THERAPEUTICS, INC., priority 2008, published 2010).
Where a name gives a salt, the structure may show the parent alone.

Columns and labels:
[1] = system: MDA-MB-231; assay: Chemoresponse assay, lapatinib, MDA-MB-231; format: cell-based; details: 72 hours
Experimental: (§1) The chemoresponse assay for lapatinib was developed using four different immortalized cell lines (SK-OV3, BT474, MDA-MB-231, MCF7). In addition to cell lines, the chemoresponse assay was also performed on 55 primary cultures of breast carcinomas. […] Cell lines and specimens were treated with a 10 dose concentration range of lapatinib for 72 hours and stained with DAPI; remaining live cells were counted on an inverted fluorescent microscope.

[2] = system: MCF7; assay: Chemoresponse assay, lapatinib, MCF7; format: cell-based; details: 72 hours
Experimental: as §1

[3] = system: SK-OV3; assay: Chemoresponse assay, lapatinib, SK-OV3; format: cell-based
Experimental: as §1

[4] = system: BT474; assay: Chemoresponse assay, lapatinib, BT474; format: cell-based
Experimental: as §1

[5] = system: primary cultures of breast carcinomas; assay: Chemoresponse assay, lapatinib, primary cultures of breast carcinomas; format: cell-based, human; details: 55 primary breast cultures; 72 hours
Experimental: as §1

[6] = system: H358; assay: ChemoFx chemoresponse assay, erlotinib, H358 cell line; format: cell-based, human; details: Log EC50 by dose number, mean of 3 assays
Experimental: (§2) Three human lung tumor-derived immortalized cell lines were tested in this study: H292, H358, and Calu3 (American Type Culture Collection, Manassas, Va.). These cell lines were seeded at 40,000 cells in T25 flasks (PGC Scientifics, Frederick, Md.) and allowed to grow for one week to approximately 90% confluence.
(§3) Cell lines and tissue specimens were processed and tested with the ChemoFx® assay as described elsewhere. Also see, U.S. Pat. Nos. 5,728,541, 6,900,027, 6,887,680, 6,933,129, 6,416,967, 7,112,415, and 7,314,731; and U.S. application Ser. Nos. 10/399,563, 11/504,098, 11/595,967, 11/713,662, and 11/785,984, all of which are hereby incorporated by reference in their entireties, and especially with regard to tissue processing and cell culturing techniques, and assays. Ten doses of erlotinib were prepared by serial dilution. The same 10-dose concentration range was used for the cell lines and the tissue specimens. For each dose, a cytotoxic index (CI) was calculated according to the following formula: CI=Mean cell countdose x/mean cell countcontrol, which represents the ratio of cells killed as a result of the treatment. Cell counts were the average of 3 replicates at each dose for primary cultures and 9 replicates at each dose for immortalized cell lines. […] Adjusted areas under the curve (aAUC) were calculated for each dose-response curve as previously described.

[7] = system: primary cultures of lung cancer; assay: ChemoFx chemoresponse assay, erlotinib, primary cultures of lung cancer; format: cell-based, human; details: 34 lung cancer tumors; 72-hour treatment
Excerpt: Patient tumor specimens: Primary cell cultures were established using tumor specimens procured for research purposes from the following sources: National Disease Research Interchange (Philadelphia, Pa.), Cooperative Human Tissue Network (Philadelphia, Pa.), Forbes Regional Hospital (Monroeville, Pa.), Jameson Hospital (New Castle, Pa.), Saint Barnabas Medical Center (Livingston, N.J.), Hamot Medical Center (Erie, Pa.), and Windber Research Institute (Windber, Pa.). The tumors were removed from the patient at the time of surgery, placed in the supplied 125-mL bottle containing sterile McCoy's shipping medium (Mediatech, Herndon, Va.), and shipped overnight to Precision Therapeutics, Inc. laboratories (Pittsburgh, Pa.).
Cell lines and tissue specimens were processed and tested with the ChemoFx® assay as described elsewhere. Also see, U.S. Pat. Nos. 5,728,541, 6,900,027, 6,887,680, 6,933,129, 6,416,967, 7,112,415, and 7,314,731; and U.S. application Ser. Nos. 10/399,563, 11/504,098, 11/595,967, 11/713,662, and 11/785,984, all of which are hereby incorporated by reference in their entireties, and especially with regard to tissue processing and cell culturing techniques, and assays. Ten doses of erlotinib were prepared by serial dilution. The same 10-dose concentration range was used for the cell lines and the tissue specimens. For each dose, a cytotoxic index (CI) was calculated according to the following formula: CI=Mean cell countdose x/mean cell countcontrol, which represents the ratio of cells killed as a result of the treatment. Cell counts were the average of 3 replicates at each dose for primary cultures and 9 replicates at each dose for immortalized cell lines. Dose response curves were generated using the CI at each dose. Adjusted areas under the curve (aAUC) were calculated for each dose-response curve as previously described.

[8] = system: Calu-3; assay: ChemoFx chemoresponse assay, erlotinib, Calu-3 cell line; format: cell-based, human; details: Calu3; Log EC50 by dose number, mean of 3 assays
Experimental: as §2, §3

[9] = system: H292 xenograft; details: tumor growth inhibition; cited from earlier work
[10] = system: H358 xenograft; details: tumor growth inhibition; cited from earlier work
[11] = system: Calu3 xenograft; details: tumor growth inhibition; cited from earlier work
[12] = system: H292; assay: ChemoFx chemoresponse assay, erlotinib, H292 cell line; format: cell-based, human; details: Log EC50 by dose number, mean of 3 assays
Experimental: as §2, §3

Row | EC50 ([1]; Homo sapiens) [µM] | EC50 ([2]; Homo sapiens) [µM] | EC50 ([3]; Homo sapiens, SK-OV-3, 72 hours) [µM] | EC50 ([4]; Homo sapiens, BT-474, 72 hours) [µM] | Mean (Log EC50*) [6] [dose number] | Mean (Log EC50*) [8] [dose number] | Mean (Log EC50*) [12] [dose number] | SMILES | response to lapatinib treatment [1] | response to lapatinib treatment [2] | response to lapatinib treatment ([3]; 72 hours) | response to lapatinib treatment ([4]; 72 hours) | specimens non-responsive to lapatinib [5] [%] | specimens responsive to lapatinib [5] [%] | specimens with intermediate response to lapatinib [5] [%] | specimens Intermediate Responsive to erlotinib [7] [%] | specimens Non-Responsive to erlotinib [7] [%] | specimens Responsive to erlotinib [7] [%] | Xenograft TGI (%) [22] [9] [%] | Xenograft TGI (%) [22] [10] [%] | Xenograft TGI (%) [22] [11] [%]
1 | ~10 | ~10 | ~10 | ~10 | – | – | – | CS(=O)(=O)CCNCc1ccc(-c2ccc3ncnc(Nc4ccc(OCc5cccc(F)c5)c(Cl)c4)c3c2)o1 [lapatinib, Lapatinib] | responsive | responsive | responsive | responsive | 76 | 9 | 15 | – | – | – | – | – | –
2 | – | – | – | – | 5.925 | 6.715 | 4.731 | C#Cc1cccc(Nc2ncnc3cc(OCCOC)c(OCCOC)cc23)c1 [erlotinib, Erlotinib hydrochloride] | – | – | – | – | – | – | – | 20.6 | 70.6 | 8.8 | 85 | 25 | 67
